Source: patent US8158389B2, “Products and methods for in vivo secretion of monatin” (priority 2005, dated 2012)

System: E. coli BL21 DE3
Test: Monatin excretion with sodium decanoate, E. coli BL21 DE3 with or without cysH deletion
Type: cell-based, Escherichia coli
Conditions: 2.5 mM sodium decanoate, n = 2
Description: For inoculum, the E. coli strains BL21 DE3 aspC proA pET32 and BL21 DE3 ΔcysH: : aspCproA pET32 were grown overnight at 37° C. and 250 rpm in Luria-Bertani (“LB”) medium with 100 μg/mL ampicillin.
For the experimental treatments, Trp-1+glucose medium, a minimal medium that has been used for increased production of tryptophan in E. coli cells (Zeman et al. Folia Microbiol. 35:200-204, (1990)), was prepared as follows. To 800 mL nanopure water the following reagents were added: 2 g (NH4)2SO4 and 13.6 g KH2PO4. The pH was adjusted to 7.0, the volume was increased to 948 mL, and the medium was autoclaved. Following sterilization, 0.2 g MgSO4.7H2O, 0.01 g CaCl2.2H2O, and 0.5 mg FeSO4.7H2O were ad to the medium in a 1.8 mL volume followed by addition of 0.2 mL of Neidhardt's micronutrient solution. Neidhardt, F. C., et al., “Culture medium for Enterobacteria,” J. Bacteriol. 119:736-746 (1974). Neidhardt's medium includes (per liter): 0.18 g (NH4)6(MO7)24.4H2O, 1.24 g H3BO3, 0.36 g CoCl2.6H2O, 0.12 g CuSO4 (anhydrous), 0.8 g MnCl2.4H2O, and 0.14 g ZnSO4.7H2O. A 50% glucose solution was prepared separately and sterile-filtered. Forty mL of glucose solution and 10 mL of 1 M 3-Morpholinopropanesulfonic acid (“MOPS”) buffer were added to the base medium (950 mL) for a 1 L final volume.
Conditions for the treatments included 250 rpm agitation throughout and 37° C. up to induction, then, 30° C. following induction. At an OD600 nm between 0.44-0.52, induction of the plasmid genes was initiated. At induction, 1.0 mM IPTG, 0.5 mM pyridoxine hydrochloride, and 0.2 mL's of Balch's vitamins were added. Additions of 10 g/L L-tryptophan, 10 g/L sodium pyruvate, 0.04 mM pyridoxal-5′-phosphate (“PLP”) and 0.2% Tween® 20 (polyoxyethylene 20-sorbitan monolaurate) were made 3.0 hours following induction. At 3 hours after the initial feeding of pyruvate, another 10 g/L of sodium pyruvate was added to each flask. Some treatments included 2.5 mM sodium decanoate (or sterile, distilled water for the 0 mM decanoate treatment) addition at 3.0 hours following induction.

[1] = E. coli BL21 DE3 aspC proA pET32
[2] = E. coli BL21 DE3 ΔcysH::aspC proA pET32

CCCCCCCCCC(=O)[O-].[Na+] [sodium decanoate]
Monatin/dry cell wt., 24 hours [1]: 70.9 mg/g
Monatin/dry cell wt., 30 hours [1]: 75.0 mg/g
Monatin/dry cell wt., 48 hours [1]: 44.0 mg/g
Monatin/dry cell wt., 24 hours [2]: 115.0 mg/g
Monatin/dry cell wt., 30 hours [2]: 103.1 mg/g
Monatin/dry cell wt., 48 hours [2]: 73.3 mg/g
